# System: not given
# Settings: not given
row,Structure (SMILES),melting point
1,"COC(=O)c1ccc(Cn2c(=O)c3cc(C(=O)NCc4ccc5c(c4)OCO5)ccc3n3cnnc23)cc1 [Example 10, Methyl 4-{7-[(1,3-benzodioxol-5-ylmethyl)-carbamoyl]-5-oxo-5H-[1,2,4]triazolo[4,3-a]quinazol-4-ylmethyl}benzoate]",248 °C
2,"COC(=O)c1ccc(Cn2c(=O)c3cc(C(=O)NCc4ccc(OC)cc4)ccc3n3cnnc23)cc1 [Example 11, Methyl 4-{7-[(4-methoxybenzyl)-carbamoyl]-5-oxo-5H-[1,2,4]triazolo[4,3-a]quinazol-4-ylmethyl}benzoate]",210 °C
3,"COC(=O)c1ccc(Cn2c(=O)c3cc(C(=O)NCc4ccncc4)ccc3n3cnnc23)cc1 [Example 12, Methyl 4-{7-[(pyridin-4-ylmethyl)-carbamoyl]-5-oxo-5H-[1,2,4]triazolo[4,3-a]quinazol-4-ylmethyl}benzoate]",235 °C
4,"CN(C)CCOC(=O)c1ccc(Cn2c(=O)c3cc(C(=O)NCc4ccc(F)cc4)ccc3n3cnnc23)cc1 [Example 13, (2-Dimethylamino-ethyl) 4-[7-(4-fluoro-benzylcarbamoyl)-5-oxo-5H-[1,2,4]triazolo[4,3-a]quinazol-4-ylmethyl]benzoate]",175 °C
5,"N#Cc1ccc(Cn2c(=O)c3cc(C(=O)NCc4ccncc4)ccc3n3cnnc23)cc1 [Example 15, N-(pyridin-4-ylmethyl)-4-(4-cyanobenzyl)-5-oxo-4H-[1,2,4]triazolo[4,3-a]quinazol-7-ylcarboxamide]",300 °C
6,"COC(=O)Cc1ccc(Cn2c(=O)c3cc(C(=O)NCc4ccc(OC)cc4)ccc3n3cnnc23)cc1 [Example 17, Methyl (4-{7-[(4-methoxy)-benzylcarbamoyl]-5-oxo-5H-[1,2,4]triazolo[4,3-a]quinazolin-4-ylmethyl}-phenyl)-acetate]",204 °C
7,"O=C(NCc1ccncc1)c1ccc2c(c1)c(=O)n(C/C=C/c1ccncc1)c1nncn21 [Example 19, N-(pyridin-4-ylmethyl) 4-[3-(pyridin-4-yl)-2-propen-1-yl]-5-oxo-4H-[1,2,4]triazolo[4,3-a]quinazol-7-ylcarboxamide]",250 °C
8,"COc1ccc(CNC(=O)c2ccc3c(c2)c(=O)n(CCOc2ccc(Cl)cc2)c2nncn32)cc1 [Example 20, 4-[2-(4-Chloro-phenoxy)-ethyl]-5-oxo-4,5-dihydro-[1,2,4]triazolo[4,3-a]quinazoline-7-carboxylic acid 4-methoxy-benzylamide]",186 °C
9,"O=C(O)c1ccc(Cn2c(=O)c3cc(C(=O)NCc4ccc5c(c4)OCO5)ccc3n3cnnc23)cc1 [Example 22, 4-{7-[(1,3-Benzodioxol-5-ylmethyl)-carbamoyl]-5-oxo-5H-[1,2,4]triazolo[4,3]quinazol-4-ylmethyl}benzoic acid]",235 °C
10,"O=C(O)c1ccc(Cn2c(=O)c3cc(C(=O)NCc4ccncc4)ccc3n3cnnc23)cc1 [Example 23, 4-{7-[(Pyridin-4-ylmethyl)-carbamoyl]-5-oxo-5H-[1,2,4]triazolo[4,3-a]quinazol-4-ylmethyl}benzoic acid]",255 °C
11,"O=C(O)c1ccc(Cn2c(=O)c3cc(C(=O)NCc4ccc(F)cc4)ccc3n3cnnc23)cc1 [Example 24, 4-{7-[(4-Fluoro)-benzylcarbamoyl]-5-oxo-5H-[1,2,4]triazolo[4,3-a]quinazol-4-ylmethyl}benzoic acid]",303 °C
12,"COc1ccc(CNC(=O)c2ccc3c(c2)c(=O)n(Cc2ccc(CC(=O)O)cc2)c2nncn32)cc1 [Example 25, (4-{7-[(4-Methoxy)-benzylcarbamoyl]-5-oxo-5H-[1,2,4]triazolo[4,3-a]quinazolin-4-ylmethyl}-phenyl)-acetic acid]",268 °C
13,"O=C(O)Cc1ccc(Cn2c(=O)c3cc(C(=O)NCc4ccc5c(c4)OCO5)ccc3n3cnnc23)cc1 [Example 26, (4-{7-[(1,3-Benzodioxol-5-ylmethyl)-carbamoyl]-5-oxo-5H-[1,2,4]triazolo[4,3-a]quinazolin-4-ylmethyl}-phenyl)-acetic acid]",232 °C

# System: MMP-1, MMP-2, MMP-3, MMP-9 and MMP-13
# Settings: prior art compounds, collagenase, gelatinase and stromelysin type MMPs; cited from earlier work
row,Structure (SMILES),"inhibition of MMP-1, MMP-2, MMP-3, MMP-9 and MMP-13 (non-selective)"
1,CC1(C)SCCN(S(=O)(=O)c2ccc(Oc3ccncc3)cc2)[C@H]1C(=O)NO [AG-3340],simultaneously inhibit
2,COc1ccc(S(=O)(=O)N(Cc2cccnc2)[C@@H](C(=O)NO)C(C)C)cc1 [CGS-27.023A],simultaneously inhibit

# Source: US6849637B2, “Triazolo compounds as MMP inhibitors” (Warner-Lambert Company, priority 2001, dated 2005)
